The values that follow are results of earlier work, collected in US20130303466A1, “Chemosensory Receptor Ligand-Based Therapies” (ELCELYX THERAPEUTICS, INC., priority 2010, published 2013).

SMILES strings stand for the structures.

The target of this data set is T1, sweet receptor (Homo sapiens, UniProt Q7RTX0+Q8TE23).
T1 sequence (Q8TE23 20-839): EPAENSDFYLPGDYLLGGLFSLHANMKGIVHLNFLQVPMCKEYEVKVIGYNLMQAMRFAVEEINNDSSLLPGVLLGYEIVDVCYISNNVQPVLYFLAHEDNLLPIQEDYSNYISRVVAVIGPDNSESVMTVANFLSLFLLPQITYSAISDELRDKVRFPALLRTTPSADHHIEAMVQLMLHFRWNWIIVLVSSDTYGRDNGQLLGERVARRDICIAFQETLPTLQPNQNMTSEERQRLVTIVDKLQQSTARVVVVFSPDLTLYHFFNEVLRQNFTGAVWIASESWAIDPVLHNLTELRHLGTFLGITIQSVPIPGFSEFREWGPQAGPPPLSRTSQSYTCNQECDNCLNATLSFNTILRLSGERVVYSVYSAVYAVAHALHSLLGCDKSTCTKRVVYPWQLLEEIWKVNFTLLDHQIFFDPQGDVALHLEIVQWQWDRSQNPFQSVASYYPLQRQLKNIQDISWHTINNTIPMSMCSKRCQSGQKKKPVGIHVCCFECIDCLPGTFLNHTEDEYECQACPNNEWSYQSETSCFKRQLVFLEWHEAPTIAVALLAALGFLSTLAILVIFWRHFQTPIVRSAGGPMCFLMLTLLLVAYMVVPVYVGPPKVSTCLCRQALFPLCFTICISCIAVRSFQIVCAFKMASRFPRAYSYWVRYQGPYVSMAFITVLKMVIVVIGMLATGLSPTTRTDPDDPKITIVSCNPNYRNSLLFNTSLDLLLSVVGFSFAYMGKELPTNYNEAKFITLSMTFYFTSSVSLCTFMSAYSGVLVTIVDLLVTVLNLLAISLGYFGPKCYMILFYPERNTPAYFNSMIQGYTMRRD
T1 sequence (Q7RTX0 21-852): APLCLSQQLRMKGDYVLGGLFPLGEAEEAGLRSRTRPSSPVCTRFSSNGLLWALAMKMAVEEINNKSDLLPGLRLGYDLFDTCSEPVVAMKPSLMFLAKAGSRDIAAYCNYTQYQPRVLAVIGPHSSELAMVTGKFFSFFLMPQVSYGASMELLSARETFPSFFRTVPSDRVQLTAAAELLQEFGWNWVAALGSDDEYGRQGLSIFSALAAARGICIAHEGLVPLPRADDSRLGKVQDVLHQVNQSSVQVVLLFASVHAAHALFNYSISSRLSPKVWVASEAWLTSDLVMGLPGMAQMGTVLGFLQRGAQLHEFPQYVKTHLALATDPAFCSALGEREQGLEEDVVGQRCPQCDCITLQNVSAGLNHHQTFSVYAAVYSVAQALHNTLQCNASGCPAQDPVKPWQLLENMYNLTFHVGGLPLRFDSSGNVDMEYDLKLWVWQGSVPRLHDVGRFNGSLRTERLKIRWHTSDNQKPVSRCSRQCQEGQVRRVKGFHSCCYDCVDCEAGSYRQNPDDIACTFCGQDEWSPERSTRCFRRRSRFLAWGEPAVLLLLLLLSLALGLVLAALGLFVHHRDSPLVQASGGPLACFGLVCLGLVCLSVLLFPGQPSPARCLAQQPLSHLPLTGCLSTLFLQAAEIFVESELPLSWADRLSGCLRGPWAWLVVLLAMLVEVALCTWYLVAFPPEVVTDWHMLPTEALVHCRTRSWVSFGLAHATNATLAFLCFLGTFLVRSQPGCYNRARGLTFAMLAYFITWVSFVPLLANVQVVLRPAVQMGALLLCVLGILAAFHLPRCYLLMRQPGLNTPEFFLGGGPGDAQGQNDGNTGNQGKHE
The conditions noted are these: relative sweetness on a weight comparison basis to sucrose (= 1.0); ranges: relative sweetness varied with the concentration of sucrose; adapted from Kim et al., 2002.
As to `COc1c(O)cc2c(c1O)C(=O)[C@H](OC(C)=O)[C@@H](c1ccc(O)c(O)c1)O2` [(2R,3R)-2,3-Dihydro-5,7,3′,4′-tetrahydroxy-6-methoxy-3-O-acetylflavonol], the Sweetness/potency was 25. Take `COc1c(O)cc2c(c1O)C(=O)[C@H](O)[C@@H](c1ccc(O)c(O)c1)O2` [(2R,3R)-2,3-Dihydro-5,7,3′,4′-tetrahydroxy-6-methoxyflavonol]: the Sweetness/potency was 15. Consider `COc1c(O)cc2c(c1O)C(=O)[C@H](OC(C)=O)[C@@H](c1ccc(O)cc1)O2` [(2R,3R)-2,3-Dihydro-5,7,4′-trihydroxy-6-methoxy-3-O-acetylflavonol], for which the Sweetness/potency is given as 20.

On to `CC(=O)O[C@H]1C(=O)c2c(O)cc(O)cc2O[C@@H]1c1ccc(O)c(O)c1` [(2R,3R)-Dihydroquercetin 3-O-acetate], for which the Sweetness/potency is 80.

Consider `CC(C)=CCC[C@](C)(O)[C@@H]1CCC(C)=CC1=O` [(+)-Hernandulcin (11), (+)-Hernandulcin], for which the Sweetness/potency is given as 1,500. Take `CC1=CC[C@@H]([C@@H](C)[C@H]2CC[C@@]3(C)[C@@H]4CC[C@H]5[C@](C)(C(=O)O)[C@@H](O[C@@H]6O[C@H](CO)[C@@H](O)[C@H](O)[C@H]6O)CC[C@@]56C[C@@]46CC[C@]23C)OC1=O` [Abrusoside A (42), Abrusoside A]: the Sweetness/potency was 30. Turning to `COC(=O)[C@H]1O[C@@H](O[C@H]2[C@H](O[C@H]3CC[C@]45C[C@]46CC[C@]4(C)[C@@H]([C@H](C)[C@@H]7CC=C(C)C(=O)O7)CC[C@@]4(C)[C@@H]6CC[C@H]5[C@]3(C)C(=O)O)O[C@H](CO)[C@@H](O)[C@@H]2O)[C@H](O)[C@@H](O)[C@@H]1O` [Abrusoside B (43), Abrusoside B], the Sweetness/potency was 100. As for `CC1=CC[C@@H]([C@@H](C)[C@H]2CC[C@@]3(C)[C@@H]4CC[C@H]5[C@](C)(C(=O)O)[C@@H](O[C@@H]6O[C@H](CO)[C@@H](O)[C@H](O)[C@H]6O[C@@H]6O[C@H](CO)[C@@H](O)[C@H](O)[C@H]6O)CC[C@@]56C[C@@]46CC[C@]23C)OC1=O` [Abrusoside C (44), Abrusoside C], the Sweetness/potency was 50. As for `CC1=CC[C@@H]([C@@H](C)[C@H]2CC[C@@]3(C)[C@@H]4CC[C@H]5[C@](C)(C(=O)O)[C@@H](O[C@@H]6O[C@H](CO)[C@@H](O)[C@H](O)[C@H]6O[C@@H]6O[C@H](C(=O)O)[C@@H](O)[C@H](O)[C@H]6O)CC[C@@]56C[C@@]46CC[C@]23C)OC1=O` [Abrusoside D (45), Abrusoside D], the Sweetness/potency is 75. For `CC1(C)C[C@H]2C3=CC[C@@H]4[C@@]5(C)CC[C@H](O[C@@H]6O[C@H](CO[C@@H]7OC[C@H](O)[C@H](O)[C@H]7O[C@@H]7OC[C@@H](O)[C@H](O)[C@H]7O)[C@@H](O)[C@H](O)[C@H]6O)C(C)(C)[C@@H]5CC[C@@]4(C)[C@]3(C)C[C@@H](O)[C@@]23C[C@@H]1OC3=O` [Albiziasaponin A (50), Albiziasaponin A], the Sweetness/potency is recorded as 5.

As to `CC1(C(=O)O)CCC2(C)CCC3(C)C(=CC(=O)C4C5(C)CCC(OC6OC(C(=O)O)C(O)C(O)C6OC6OCC(O)(CO)C6O)C(C)(C)C5CCC43C)C2C1` (centres unmarked) [Apioglycyrrhizin (55), Apioglycyrrhizin], the Sweetness/potency is recorded as 300. Take `CC1(C)[C@@H](O[C@H]2O[C@H](C(=O)O)[C@@H](O)[C@H](O)[C@H]2O[C@@H]2OC[C@H](O)[C@H](O)[C@H]2O)CC[C@]2(C)[C@H]3C(=O)C=C4[C@@H]5C[C@@](C)(C(=O)O)CC[C@]5(C)CC[C@@]4(C)[C@]3(C)CC[C@@H]12` [Araboglycyrrhizin (56), Araboglycyrrhizin]: the Sweetness/potency is reported as 150. `C/C(=C\CC[C@@H](C)[C@H]1CC[C@@]2(C)[C@@H]3CC=C4[C@@H](CC[C@H](O[C@@H]5O[C@H](CO)[C@@H](O)[C@H](O)[C@H]5O)C4(C)C)[C@]3(C)[C@H](O)C[C@]12C)CO[C@@H]1O[C@H](CO[C@@H]2O[C@H](CO)[C@@H](O)[C@H](O)[C@H]2O)[C@@H](O)[C@H](O)[C@H]1O` [Carnosifloside VI (36), Carnosifloside VI]: the Sweetness/potency is on record as 77. `COc1ccc(C2Oc3cc(O)cc(O)c3C(=O)C2OC(C)=O)cc1O` (centres unmarked) [Dihydroquercetin 3-O-acetate 4′-methyl ether]: the Sweetness/potency was 400.

In the case of `C/C(=C\CO)CCC1=C(C=O)CC(OC2OCC(O)C(O)C2O)C2C(C)(CO)CCCC12C` (centres unmarked) [Gaudichaudioside A (32), Gaudichaudioside A], the Sweetness/potency is given as 55. As for `Oc1cc2c(cc1O)[C@@H]1c3ccc(O)c(O)c3OC[C@]1(O)C2` [Hematoxylin (99), Hematoxylin], the Sweetness/potency was 120. As to `C/C(=C\CC/C(C)=C/CO[C@@H]1O[C@H](CO)[C@@H](O)[C@H](O[C@@H]2O[C@@H](C)[C@H](O)[C@@H](O)[C@H]2O)[C@H]1O[C@@H]1O[C@@H](C)[C@H](O)[C@@H](O)[C@H]1O)CC/C=C(\C)CO[C@@H]1O[C@H](CO)[C@@H](O)[C@H](O[C@@H]2O[C@@H](C)[C@H](O)[C@@H](O)[C@H]2O)[C@H]1O[C@@H]1O[C@@H](C)[C@H](O)[C@@H](O)[C@H]1O` [Mukurozioside IIb (13), Mukurozioside IIb], the Sweetness/potency entry is recorded as “ca. 1”. As to `C[C@@H]1O[C@@H](O[C@H]2[C@H](Oc3cc(O)c(C(=O)CCc4ccc(O)cc4)c(O)c3)O[C@H](CO)[C@@H](O)[C@@H]2O)[C@H](O)[C@H](O)[C@H]1O` [Naringin dihydrochalcone (81), Naringin dihydrochalcone], the Sweetness/potency is recorded as 300. Consider `COc1ccc(CCC(=O)c2c(O)cc(O[C@@H]3O[C@H](CO)[C@@H](O)[C@H](O)[C@H]3O[C@@H]3O[C@@H](C)[C@H](O)[C@@H](O)[C@H]3O)cc2O)cc1O` [Neohesperidin dihydrochalcone (82), Neohesperidin dihydrochalcone], for which the Sweetness/potency is recorded as 1,000. For `C[C@@H]1O[C@@H](O[C@H]2O[C@@H]([C@@H](C)C3CC[C@@H]4[C@H]5CC(=O)[C@@H]6C[C@H](O[C@@H]7O[C@H](CO)[C@@H](O)[C@H](O)[C@H]7O[C@@H]7O[C@@H](C)[C@H](O)[C@@H](O)[C@H]7O)CC[C@]6(C)[C@@H]5CC[C@]34C)CC[C@@H]2C)[C@H](O)[C@H](O)[C@H]1O` (some centres unmarked) [Osladin (64), Osladin], the Sweetness/potency was 500.

Regarding `CC1(C)[C@@H](O[C@@H]2O[C@H](C(=O)O)[C@@H](O)[C@H](O)[C@H]2O[C@@H]2O[C@H](C(=O)O)[C@@H](O)[C@H](O)[C@H]2O)CC[C@]2(C=O)[C@H]3CC[C@@H]4C5=C[C@@](C)(C(=O)O)CC[C@]5(C)CC[C@@]4(C)[C@]3(C)CC[C@@H]12` [Periandrin I (57), Periandrin I], the Sweetness/potency is 90. For `CC1(C(=O)O)C=C2C3CCC4C5(CO)CCC(OC6OC(C(=O)O)C(O)C(O)C6OC6OC(C(=O)O)C(O)C(O)C6O)C(C)(C)C5CCC4(C)C3(C)CCC2(C)CC1` (centres unmarked) [Periandrin III (59), Periandrin III], the Sweetness/potency is reported as 92. As to `CC1(C(=O)O)C=C2C3CCC4C5(C=O)CCC(OC6OC(C(=O)O)C(O)C(O)C6OC6OCC(O)C(O)C6O)C(C)(C)C5CCC4(C)C3(C)CCC2(C)CC1` (centres unmarked) [Periandrin V (61), Periandrin V], the Sweetness/potency was 220. As for `C=C(C)C1CC=C(/C=N/O)CC1` (centres unmarked) [Perillartine (10), Perillartine], the Sweetness/potency was 370. With `COc1ccc([C@H]2Cc3cccc(O)c3C(=O)O2)cc1O` [Phyllodulcin (3), Phyllodulcin], the Sweetness/potency is recorded as 400.

As to `C=C(C)C1CCC2(C)C(CC(OC3OCC(O)C(O)C3O)C3C(C(C)(O)C/C=C/C(C)(C)O)CCC32C)C1(C)CCC(=O)O` (centres unmarked) [Pterocaryoside B (63), Pterocaryoside B], the Sweetness/potency is on record as 100.
